Experimental data from patent US11590139B2, “Substituted aminopurine compounds, compositions thereof, and methods of treatment therewith” (Signal Pharmaceuticals, LLC, priority 2014, dated 2023).
Like-named read-outs stand apart in the source and are kept apart here.

Tested on: Lox-IMVI melanoma cell line
Assay: Lox-IMVI anti-proliferative assay (growth inhibition, Cell Titer-Glo)
Format: cell-based, human
Conditions: Lox-IMVI melanoma cell line, anti-proliferative assay, read-out: Activity (IC50 activity level)
Outline: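 RPMI/10% FBS; cmpd 0.5 nM–10 μM, 3-fold ×10, duplicate, 0.2% DMSO final; 72 h, 37 °C, 5% CO2. ATP-luminescence readout at t0 and 72 h. IC50 = 50% of DMSO control, 4-parameter logistic fit.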

Q: How did the IC50 (Homo sapiens) turn out when `CS(=O)(=O)N1CCC[C@@H](Nc2ncc3nc(Nc4c(Cl)cc(C#N)cc4Cl)n([C@H]4CC[C@@H](C(N)=O)CC4)c3n2)C1` [Example 702, (1S,4s)-4-(8-(2,6-dichloro-4-cyanophenylamino)-2-((R)-1-(methylsulfonyl)piperidin-3-ylamino)-9H-purin-9-yl)cyclohexanecarboxamide] was run?
A: > 1000 nM

Q: Which IC50 (Homo sapiens) does the source give for `CS(=O)(=O)N1CCC[C@@H](Nc2ncc3nc(Nc4c(F)cc(Cl)cc4F)n([C@H]4CC[C@@H](C(N)=O)CC4)c3n2)C1` [Example 703, (1S,4s)-4-(8-(4-chloro-2,6-difluorophenylamino)-2-((R)-1-(methylsulfonyl)piperidin-3-ylamino)-9H-purin-9-yl)cyclohexanecarboxamide] here?
A: > 1000 nM

Q: `CS(=O)(=O)N1CCC[C@@H](Nc2ncc3nc(Nc4c(F)cc(C#N)cc4Cl)n([C@H]4CC[C@@H](C(N)=O)CC4)c3n2)C1` [Example 704, (1S,4s)-4-(8-(2-chloro-4-cyano-6-fluorophenylamino)-2-((R)-1-(methylsulfonyl)piperidin-3-ylamino)-9H-purin-9-yl)cyclohexanecarboxamide] was tested. Which IC50 (Homo sapiens) did it give?
A: > 1000 nM

Q: For `CNC(=O)N1CCC[C@@H](Nc2ncc3nc(Nc4c(Cl)cc(Cl)cc4Cl)n([C@H]4CC[C@@H](C(N)=O)CC4)c3n2)C1` [Example 705, (R)-3-(9-((1s,4S)-4-carbamoylcyclohexyl)-8-(2,4,6-trichlorophenylamino)-9H-purin-2-ylamino)-N-methylpiperidine-1-carboxamide], which IC50 (Homo sapiens) is on record?
A: > 1000 nM

Q: For `CNC(=O)N1CCC[C@@H](Nc2ncc3nc(Nc4c(F)cc(Cl)cc4Cl)n([C@H]4CC[C@@H](C(N)=O)CC4)c3n2)C1` [Example 706, (R)-3-(9-((1s,4S)-4-carbamoylcyclohexyl)-8-(2,4-dichloro-6-fluorophenylamino)-9H-purin-2-ylamino)-N-methylpiperidine-1-carboxamide], which IC50 (Homo sapiens) is on record?
A: > 1000 nM

Q: For `CNC(=O)N1CCC[C@@H](Nc2ncc3nc(Nc4c(Cl)cc(C#N)cc4Cl)n([C@H]4CC[C@@H](C(N)=O)CC4)c3n2)C1` [Example 707, (R)-3-(9-((1s,4S)-4-carbamoylcyclohexyl)-8-(2,6-dichloro-4-cyanophenylamino)-9H-purin-2-ylamino)-N-methylpiperidine-1-carboxamide], which IC50 is on record?
A: > 1000 nM

Q: `COC(=O)N1CCC[C@@H](Nc2ncc3nc(Nc4c(Cl)cc(C#N)cc4Cl)n([C@H]4CC[C@@H](C(N)=O)CC4)c3n2)C1` [Example 708, (R)-methyl 3-(9-((1s,4S)-4-carbamoylcyclohexyl)-8-(2,6-dichloro-4-cyanophenylamino)-9H-purin-2-ylamino)piperidine-1-carboxylate] was tested. Which IC50 (Homo sapiens) did it give?
A: 250 to 500 nM

Q: With `COC(=O)N1CCC[C@@H](Nc2ncc3nc(Nc4c(F)cc(C#N)cc4Cl)n([C@H]4CC[C@@H](C(N)=O)CC4)c3n2)C1` [Example 709, (R)-methyl 3-(9-((1s,4S)-4-carbamoylcyclohexyl)-8-(2-chloro-4-cyano-6-fluorophenylamino)-9H-purin-2-ylamino)piperidine-1-carboxylate] as the compound, how does the IC50 (Homo sapiens) read?
A: 500 to 1000 nM

Q: For `CC(=O)N1CCC[C@@H](Nc2ncc3nc(Nc4c(Cl)cc(Cl)cc4Cl)n([C@H]4CC[C@@H](C(N)=O)CC4)c3n2)C1` [Example 710, (1S,4s)-4-(2-((R)-1-acetylpiperidin-3-ylamino)-8-(2,4,6-trichlorophenylamino)-9H-purin-9-yl)cyclohexanecarboxamide], which IC50 (Homo sapiens) is on record?
A: > 1000 nM

Q: How did the IC50 (Homo sapiens) turn out when `CC(=O)N1CCC[C@@H](Nc2ncc3nc(Nc4c(F)cc(Cl)cc4Cl)n([C@H]4CC[C@@H](C(N)=O)CC4)c3n2)C1` [Example 711, (1S,4s)-4-(2-((R)-1-acetylpiperidin-3-ylamino)-8-(2,4-dichloro-6-fluorophenylamino)-9H-purin-9-yl)cyclohexanecarboxamide] was run?
A: > 1000 nM

Q: `CC(=O)N1CCC[C@@H](Nc2ncc3nc(Nc4c(Cl)cc(C#N)cc4Cl)n([C@H]4CC[C@@H](C(N)=O)CC4)c3n2)C1` [Example 712, (1S,4s)-4-(2-((R)-1-acetylpiperidin-3-ylamino)-8-(2,6-dichloro-4-cyanophenylamino)-9H-purin-9-yl)cyclohexanecarboxamide] was tested. Which IC50 (Homo sapiens) did it give?
A: > 1000 nM

Q: Which IC50 (Homo sapiens) does the source give for `CC(=O)N1CCC[C@@H](Nc2ncc3nc(Nc4c(F)cc(Cl)cc4F)n([C@H]4CC[C@@H](C(N)=O)CC4)c3n2)C1` [Example 713, (1S,4s)-4-(2-((R)-1-acetylpiperidin-3-ylamino)-8-(4-chloro-2,6-difluorophenylamino)-9H-purin-9-yl)cyclohexanecarboxamide] here?
A: > 1000 nM

Q: `NC(=O)[C@H]1CC[C@@H](n2c(Nc3c(F)cc(Cl)cc3Cl)nc3cnc(N[C@H]4CCOC[C@H]4F)nc32)CC1` [Example 714, (1R,4s)-4-(8-(2,4-dichloro-6-fluorophenylamino)-2-((3S,4S)-3-fluorotetrahydro-2H-pyran-4-ylamino)-9H-purin-9-yl)cyclohexanecarboxamide] was tested. Which IC50 (Homo sapiens) did it give?
A: < 250 nM

Q: How did the IC50 (Homo sapiens) turn out when `C[C@]1(C(N)=O)CC[C@@H](n2c(Nc3c(F)cc(F)cc3Cl)nc3cnc(N[C@@H]4CCOC[C@H]4F)nc32)CC1` [Example 715, (1S,4s)-4-(8-(2-chloro-4,6-difluorophenylamino)-2-((3S,4R)-3-fluorotetrahydro-2H-pyran-4-ylamino)-9H-purin-9-yl)-1-methylcyclohexanecarboxamide] was run?
A: < 250 nM

Q: For `C[C@]1(C(N)=O)CC[C@@H](n2c(Nc3c(F)cc(Cl)cc3Cl)nc3cnc(N[C@H]4CCOC[C@H]4F)nc32)CC1` [Example 716, (1R,4s)-4-(8-(2,4-dichloro-6-fluorophenylamino)-2-((3S,4S)-3-fluorotetrahydro-2H-pyran-4-ylamino)-9H-purin-9-yl)-1-methylcyclohexanecarboxamide], which IC50 (Homo sapiens) is on record?
A: < 250 nM

Q: For `C[C@@H]1COCC[C@H]1Nc1ncc2nc(Nc3c(F)cc(Cl)cc3Cl)n([C@H]3CC[C@@](C)(C(N)=O)CC3)c2n1` [Example 717, (1S,4s)-4-(8-(2,4-dichloro-6-fluorophenylamino)-2-((3S,4R)-3-methyltetrahydro-2H-pyran-4-ylamino)-9H-purin-9-yl)-1-methylcyclohexanecarboxamide], which IC50 (Homo sapiens) is on record?
A: < 250 nM

Q: For `C[C@]1(C(N)=O)CC[C@@H](n2c(Nc3c(Cl)cc(Cl)cc3Cl)nc3cnc(N[C@@H]4CCOC[C@H]4F)nc32)CC1` [Example 718, (1S,4s)-4-(2-((3S,4R)-3-fluorotetrahydro-2H-pyran-4-ylamino)-8-(2,4,6-trichlorophenylamino)-9H-purin-9-yl)-1-methylcyclohexanecarboxamide], which IC50 (Homo sapiens) is on record?
A: < 250 nM

Q: `C[C@]1(C(N)=O)CC[C@@H](n2c(Nc3c(Cl)cc(Cl)cc3Cl)nc3cnc(N[C@H]4CCOC[C@H]4F)nc32)CC1` [Example 719, (1R,4s)-4-(2-((3S,4S)-3-fluorotetrahydro-2H-pyran-4-ylamino)-8-(2,4,6-trichlorophenylamino)-9H-purin-9-yl)-1-methylcyclohexanecarboxamide] was tested. Which IC50 (Homo sapiens) did it give?
A: < 250 nM

Q: For `C[C@]1(C(N)=O)CC[C@@H](n2c(Nc3c(F)cc(Cl)cc3F)nc3cnc(N[C@@H]4CCOC[C@H]4F)nc32)CC1` [Example 720, (1S,4s)-4-(8-(4-chloro-2,6-difluorophenylamino)-2-((3S,4R)-3-fluorotetrahydro-2H-pyran-4-ylamino)-9H-purin-9-yl)-1-methylcyclohexanecarboxamide], which IC50 (Homo sapiens) is on record?
A: < 250 nM

Q: `C[C@]1(C(N)=O)CC[C@@H](n2c(Nc3c(F)cc(Cl)cc3F)nc3cnc(N[C@H]4CCOC[C@H]4F)nc32)CC1` [Example 721, (1R,4s)-4-(8-(4-chloro-2,6-difluorophenylamino)-2-((3S,4S)-3-fluorotetrahydro-2H-pyran-4-ylamino)-9H-purin-9-yl)-1-methylcyclohexanecarboxamide] was tested. Which IC50 (Homo sapiens) did it give?
A: < 250 nM
